Assays:
Rattus norvegicus = assay: Toxicity in rat at 2 g/kg, po; assay type: organism-based; settings: in vivo, 2000 mg/kg
[1] = system: Radical scavenging activity; assay: DPPH radical scavenging activity at 100 uM; assay type: functional

Row | Compound | Activity (Rattus norvegicus) | Activity [1] [%]
1 | O=C(/C=C/c1ccc(O)c(O)c1)NCCc1ccc(O)cc1 | Not Active | 40
2 | O=C(CCc1ccc(O)c(O)c1)NCCc1ccc(O)cc1 | Not Active | 
3 | O=C(CCc1ccc(O)cc1)NCCc1ccc(O)cc1 | Not Active | 
4 | O=C(/C=C/c1ccc(O)c(O)c1)NCCc1ccc(O)c(O)c1 |  | 60
5 | COc1cc(CNC(=O)/C=C/c2ccc(O)c(O)c2)ccc1O |  | 60
6 | COc1cc(/C=C/C(=O)NCCc2ccc(O)c(O)c2)ccc1O |  | 60
